Assay results published in patent US20160213651A1, “PIDOTIMOD FOR USE IN THE TREATMENT OF INFLAMMATION-ASSOCIATED DISEASES” (POLICHEM S.A., priority 2013, published 2016).
Square brackets hold non-standard residues; d marks the D form. Peptide text beside a SMILES is read from it. pGlu = O=C1CC[C@@H](C(=O)O)N1; Thz = O=C(O)[C@@H]1CSCN1

Key:
[1] = system: NLRP12; assay: NLRP12 mRNA expression in MonoMac 6 cells (transcriptional array, quantitative Real-Time PCR); format: cell-based, human
Procedure: (§1) 1. Culture of human monocytes. Peripheral blood mononuclear cells (PBMCs) were obtained by peripheral blood (freshly drawn or buffy coats). Monocytes were then derived from PBMCs by positive selection using anti-CD14 paramagnetic beads (Miltenyi Biotec) as described (Marini et al., 2008). Upon purification, cells were shortly cultured (from 24 to 72 hours) in complete culture medium (RPMI 1640 complemented with 10% of fetal bovine serum certified low endotoxin).
(§2) 2. Cell treatment with Pidotimod. PBMCs, purified primary human monocytes or MonoMac 6were treated with Pidotimod, at concentrations ranging from 1 to 25 μg/mL and, for different times. In some experiments, after 6 to 48 hours from the beginning of Pidotimod treatment, cells were washed and cultured for 6-24 hours in the presence and absence of TLR 1-9 optimal ligands (Human TLR1-9 Agonist kit, Invivogen).
(§3) 3. Evaluation of gene expression involved in Pidotimod activity. Upon stimulation, cells were harvested and total RNA was extracted using the RNAeasy mini kit (Qiagen). RNA was then retro-transcribed and subjected to amplification. Real-time PCR was performed using the “Human “RT2 Profiler PCR microarray kit” according to the manufacturer's protocol (SABbiosciences, Qiagen). […]
(§4) 5. […] Data obtained were analysed using the 2^−ΔΔCt method using Relative Quantification Study software (Applied Biosystems). […]

[2] = system: NLRP12; assay: NLRP12 mRNA expression in primary monocytes from peripheral blood of healthy donors; format: cell-based, human; details: primary monocytes from 8 different subjects, 25 and 5 μg/ml (FIG. 2)
Procedure: as §1, §2, §3, §4

[3] = system: NLRP12; assay: NLRP12 protein expression in Monomac6 by immunoprecipitation and immunoblotting; format: cell-based, human; details: Monomac6, 5 μg/ml, 36 hours, immunoblotting upon immunoprecipitation (FIG. 3)
Procedure: as §1, §2
(§5) 4. Immunoblot and immunoprecipitation assays. Cell lysates were prepared in lysis buffer containing a protease inhibitor cocktail (Roche). […] To detect the presence of cytoplasmic NLRP12, a first incubation with the goat polyclonal antibody to NLRP12 (Santa Cruz Biotechnology) was followed by the addiction of donkey-anti-goat-HRP secondary antibody. […]

[4] = system: primary human monocytes; assay: mRNA of inflammatory mediators in primary human monocytes treated with TLR agonists; format: cell-based
Procedure: as §1, §2
5. Transcription array. The Pidotimod ability to reduce the inflammation induced by potent danger signals as LPS or other PAMPs was highlighted by evaluating the level of mRNA specific for effector inflammatory molecules. To this scope total RNA was extracted using the semiautomated extraction system NucliSens Easymag (Biomerieux). […] Data obtained were analysed using the 2^−ΔΔCt method using Relative Quantification Study software (Applied Biosystems). […]

[5] = system: PBMCs and/or purified monocytes; assay: ELISA quantification of inflammatory molecules in cell supernatants after TLR stimulation; format: cell-based, human
Procedure: as §1, §2
6. ELISA for the quantification of proinflammatory molecules induced by TLR stimulation. The increase of cytokine synthesis is the signal of cellular response to TLR stimulation. Pidotimod disciplines the extent of inflammation by upregulating the expression of NLRP12 which reduces the amplification of inflammatory signals triggered by TLR activation. […] The presence of IL-6, IL-8, TNF-α, MCP-1 and IL-1β was quantified in the cultural medium through ELISA assays (Endogen).

[6] = system: NLRP12; assay: NLRP12 downregulation induced in monocytes by TLR stimulation, Pidotimod pretreatment; format: cell-based, human; details: monocytes pretreated with Pidotimod
Procedure: as §1, §2, §5, §4

## O=C1CC[C@@H](C(=O)N2CSC[C@H]2C(=O)O)N1 [Pidotimod, (4R)-3-(5-oxo-L-prolyl)-1,3-thiazolidine-4-carboxylic acid] ([pGlu]-[Thz]-OH)
[1]; 25 μg/ml, 16 hours of treatment, gene array confirmed by Real-Time PCR
  NLRP12 mRNA increase as compared to unstimulated cells: two-fold
[1]; 25 and 5 μg/ml, tested 6, 16, 24, 48 hours (FIG. 1)
  time of peak of increase in NLRP12 expression: 24 h
[2]
  NLRP12 mRNA expression vs non-treated cells: increase of NLRP12 mRNA expression
[3]
  NLRP12 protein expression level vs untreated cells: higher amount of NLRP12 protein
[4]
  IL-6, IL-8, TNF-α and IL-1β mRNA induced by TLR agonists: controls the production of these mediators at the transcriptional level
[4]; 8 samples from 8 donors (FIG. 4)
  levels of specific MCP-1 (mRNA) induced by TLR agonists: consistently diminished
[5]; purified monocytes, TLR stimulation
  inflammatory molecules in cell supernatants by ELISA: confirmed
[5]; total PBMC instead of purified monocytes
  inflammatory molecules by ELISA in total PBMC: reproducible
[6]; representative TLR with optimal agonist (FIG. 5 left panel)
  NLRP12 expression at messenger level after TLR stimulation: able to counteract the decrement of NLRP12 expression
[6]; representative TLR with optimal agonist (FIG. 5 right panel)
  NLRP12 expression at protein level after TLR stimulation: able to counteract the decrement of NLRP12 expression
